The values that follow come from US11311506B2, “Controlling biofilms with cyclopropanated fatty acids” (THE UNIVERSITY OF MEMPHIS RESEARCH FOUNDATION, priority 2018, dated 2022).

Data set [1] deals with Pseudomonas aeruginosa (ATCC 27317) biofilm. The experiment in a line: Biofilm eradication with antibiotics, MBEC plate (Example 8, P. aeruginosa). The format is cell-based. The conditions noted are these: for FICI / Interpretation: P. aeruginosa eradication, antibiotic combined with 2-CP; for FICI: 4000 μg/mL used for 2-CP alone; for MEC for antibiotic (combined): combined with 2-CP. How it is done: (§1) Staphylococcus aureus (UAMS1) was grown overnight in TSB by incubation at 37° C. Pseudomonas aeruginosa (ATCC 27317) was grown overnight in a similar manner. S. aureus was diluted 1:10 in TSB and P. aeruginosa was diluted 1:50. Bacterial dilutions were added at a volume of 150 μL into each well of a 96-well MBEC′ Biofilm Inoculator plate, followed by overnight incubation to form the biofilm. The next day the medium from each well was carefully aspirated allowing the biofilm to remain both on the pegs of the top plate and the bottom of the wells. […] These plates were incubated at 37° C. for 24 hours. The next day the peg plates (top plate) were removed and added to new plates containing 150 μL of sterile TSB in each well. Plates were sonicated for 5 minutes to remove the viable bacteria attached to the peg surface and later incubated for 24 hours. Turbidity was measured by reading absorbance at 540 nm for bacterial growth in the presence of fixed concentrations of the antibiotics with varying concentrations of 2-CP and C2DA.

In data set [2] the test system is Staphylococcus aureus biofilm. The experiment in a line: Biofilm eradication with antibiotics, MBEC Biofilm Inoculator plate, turbidity at 540 nm (Example 3). The format is cell-based. The conditions noted are these: 24 h. The protocol:
Overnight cultures of Staphylococcus aureus were prepared by inoculating 2 mL of TSB followed by incubation overnight at 37° C. The following day, 1 mL of this stock was diluted in 10 mL of TSB. A total of 150 μL of the diluted stock was seeded into each well of a 96-well MBECTM Biofilm Inoculator plate, followed by incubation overnight to allow biofilm growth. All media and planktonic bacteria were then aspirated from each well thus allowing the biofilm to remain both on the bottom of each well and on the pegs on the top of the plate. […] The plates were incubated for 24 hours at 37° C. Following incubation, the pegs were removed and added to new plates containing 150 μL of sterile TSB in each well. Plates and pegs were then sonicated for 5 minutes to remove any viable bacteria attached to the pegs, followed by incubation for 24 hours. Turbidity was determined via absorbance at 540 nm to access bacterial growth in the presence of fixed concentration of antibiotics and varying concentrations of […] and 2-CP. In this assay, the live bacteria that remained attached to the pegs grew overnight and increased turbidity.

For data set [3], the system named is P. aeruginosa (PA-ATCC 27317). Kind of data set: Synergy checkerboard assay, biofilm inhibition (P. aeruginosa). The data set is classed as cell-based. The conditions noted are these: for FICI / Interpretation: antibiotic combined with 2-CP; for MIC for antibiotic (combined): combined with 2-CP. How it is done: (§2) Synergy assays were performed to determine the effects of 2-CP when used in combination with various antimicrobials against gram positive S. aureus and gram negative P. aeruginosa. […] Final antibiotic concentrations varied based on their respective minimum inhibitory concentration for each organism and are given in Table 1. […] Inhibition was defined as a lack of visible growth after a 24 hr incubation period. The fractional inhibitory concentration index (FICI) was used to determine synergistic, additive, or antagonistic responses between the three antibiotics and 2-CP.

The subject of data set [4] is Mouse fibroblast cells (NIH3T3). Kind of data set: Cytocompatibility, CellTiter Glow cell viability. The data set is classed as cell-based. How it is done:
Mouse fibroblast cells (NIH3T3) were seeded (1×10^4 cells/cm^2) in 24-well plates in Dulbecco's Modified Eagle's Medium (DMEM) supplemented with 10% fetal bovine serum and 100 μg/mL Normocin for 24 hours at 37° C. and 5% CO2. Concentrations of C2DA, T2DA, and 2-CP ranging from 0 to 1000 μg/mL were added to various wells. The plate was incubated for 24 hours and cell viability was measured using CellTiter Glow.
For orientation: ATP-based viability assays read luminescence as a measure of living cells.

A further data set concerns S. aureus (UAMS-1). Kind of data set: Synergy checkerboard assay, biofilm inhibition (S. aureus). The data set is classed as cell-based. The conditions noted are these: for MIC for antibiotic (combined): combined with 2-CP. The protocol: as §2
Data set [5] deals with Staphylococcus aureus (UAMS1) biofilm. Kind of data set: Biofilm eradication with antibiotics, MBEC plate (Example 8, S. aureus). The format is cell-based. The protocol: as §1
In data set [6] the test system is Pseudomonas aeruginosa (ATCC 27317) biofilm. Kind of data set: Biofilm dispersion measurements (Pseudomonas aeruginosa), Luciferase assay for ATP production. The conditions noted are these: 125 or 250 μg/mL, 24 h; FIG. 7. The data set is classed as cell-based. How it is done: Biofilm was formed using Pseudomonas aeruginosa (ATCC 27317) in a 96-well plate format. Each well of the plate was seeded with 150 μL of bacterial culture and incubated for 24 hours. […] The plate was then incubated for 24 hours and the medium was aspirated and the plate washed several times.
(§3) The relative percentage of attached cells as compared to non-treated controls was assessed using a Luciferase assay for ATP production.

Data set [7] deals with Staphylococcus aureus biofilm. Kind of data set: Biofilm dispersion measurements (Staphylococcus aureus), Luciferase assay for ATP production. The conditions noted are these: 500 μg/mL; preformed 7-day S. aureus biofilm; FIG. 1. The data set is classed as cell-based. How it is done:
Biofilm was formed using Staphylococcus aureus in a 96-well plate format. Each well of the plate was seeded with 150 μL of bacterial culture and incubated for 24 hours to allow for biofilm growth. The medium in each well was changed every 24 hours for 5 days and every 12 hours for two additional days. On day 7, 135 μL of Tryptic Soy Broth (TSB) and 15 μL of C2DA, T2DA, or 2-CP were added to yield final concentrations of each test compound ranging from 0 to 1000 μg/mL. The plate was then incubated for one hour and the turbidity of each solution was determined at 540 nm. Bacterial growths were then aspirated from all wells and the plates were washed several times with water.
as §3

The subject of a further data set is bacterial growth. The conditions noted are these: background statement; cited from earlier work.
The subject of another data set is biofilm formation. The conditions noted are these: background statement; cited from earlier work.

`CCCCCCCC1CC1C(=O)O` (stereo not drawn) [2-CP, cis-2-heptylcyclopropanyl-1-carboxylic acid]: the “MEC for 2-CP (alone)” value in data set [1] (P. aeruginosa biofilm eradication) and in data set [5] (S. aureus biofilm eradication) was over 4000 throughout. For the same compound, the “biofilm eradication by the substance alone” value in data set [1] (P. aeruginosa, alone) is listed as “did not eradicate biofilm at any concentration tested”; in [5] (S. aureus, alone), “did not eradicate biofilm at any concentration tested”. Moreover, the “MEC for 2-CP (combined)” value is on record as 250 in data set [1] (P. aeruginosa, combined with Levofloxacin); 250 in data set [1] (P. aeruginosa, combined with Tobramycin); 125 in data set [5] (S. aureus, combined with Tetracycline); 31.25 in [5] (S. aureus, combined with Tobramycin). For the same compound, in data set [2] (increasing concentration of 2-CP (0-500 μg/mL) with fixed […] tobramycin, FIG. 2), the “turbidity (absorbance at 540 nm) of bacteria surviving on pegs” value is recorded as “significantly lower”. The “biofilm eradication in combination with tetracycline” value in data set [2] (with tetracycline at […], fatty acid 0-500 μg/mL, FIG. 3) is given as “eradicated the biofilm at lower concentrations than C2DA”. Besides, the concentration inhibiting growth (in [3] (2-CP alone); in the data set with S. aureus (UAMS-1) (2-CP alone)) was 4 mg/mL each time. The MIC in data set [3] (Pseudomonas aeruginosa, ATCC27317, 24 hr, read-out: MIC for 2-CP (alone)) came out at 4000 µg/mL; with S. aureus (UAMS-1) (Staphylococcus aureus, 24 hr, read-out: MIC for 2-CP (alone)) it was 4000 µg/mL. The “MIC for 2-CP (combined)” value came to 1000 µg/mL in [3] (combined with Levofloxacin); 1000 µg/mL in data set [3] (combined with Tetracycline); 31 µg/mL in data set [3] (combined with Tobramycin); 500 µg/mL with S. aureus (UAMS-1) (combined with Levofloxacin); 62.5 µg/mL with S. aureus (UAMS-1) (combined with Tetracycline); 31 µg/mL in the data set on S. aureus (UAMS-1) (combined with Tobramycin). Besides, the “cytocompatibility (percentage of viable cells vs PBS control)” value in [4] (NIH3T3, 0 to 1000 μg/mL, 24 h, FIG. 4) was “cytocompatibility equal to C2DA”. For the same compound, in data set [4] (NIH3T3, 24 h), the “concentration exhibiting significant cytotoxicity toward mammalian cells” value turned out to be 1000 µg/mL. Besides, the “ability to disperse biofilm (relative percentage of attached cells)” value in [6] was “increased ability to disperse biofilm as compared to T2DA and controls”. Also, in data set [7], the “ability to disperse biofilm (percentage of dispersed cells)” value is listed as “increased ability to disperse biofilm as compared to its unsaturated fatty acid analog, C2DA”.
Regarding `CCCCCCC/C=C\C(=O)O` [C2DA, cis-2-decenoic acid], in the data set on bacterial growth, the “concentration that may inhibit bacterial growth” value was 500 µg/mL. Besides, the “concentration capable of inhibiting biofilm formation” value with biofilm formation was 125 µg/mL.
As for `C[C@H]1COc2c(N3CCN(C)CC3)c(F)cc3c(=O)c(C(=O)O)cn1c23` [Levofloxacin], in [1] (P. aeruginosa), the “MEC for antibiotic (alone)” value stood at 0.3 µg/mL. The FICI in [1] turned out to be 0.33; in data set [3], 0.8; in the data set with S. aureus (UAMS-1) (antibiotic combined with 2-CP), 0.4. Also, the “MEC for antibiotic (combined)” value in data set [1] (P. aeruginosa) was found to be 0.08 µg/mL. For the same compound, the “MIC for antibiotic (alone)” value (in data set [3]; in the data set with S. aureus (UAMS-1)) was 1 µg/mL in each case. Further, the “MIC for antibiotic (combined)” value is 0.5 µg/mL in data set [3] and 0.25 µg/mL with S. aureus (UAMS-1).
Turning to `CN(C)[C@@H]1C(O)=C(C(N)=O)C(=O)[C@@]2(O)C(O)=C3C(=O)c4c(O)cccc4[C@@](C)(O)[C@H]3C[C@@H]12` [Tetracycline], in data set [3], the “MIC for antibiotic (alone)” value came to 32 µg/mL, the FICI is 0.8 and the “MIC for antibiotic (combined)” value was found to be 16 µg/mL. For the same compound, in the data set on S. aureus (UAMS-1), the “MIC for antibiotic (alone)” value is 1 µg/mL and the “MIC for antibiotic (combined)” value turned out to be 0.5 µg/mL.
Regarding `NC[C@H]1O[C@H](O[C@H]2[C@H](O)[C@@H](O[C@H]3O[C@H](CO)[C@@H](O)[C@H](N)[C@H]3O)[C@H](N)C[C@@H]2N)[C@H](N)C[C@@H]1O` [Tobramycin], the “MEC for antibiotic (alone)” value in data set [1] (P. aeruginosa) was found to be 0.5 µg/mL; in data set [5] (S. aureus) it was 2.5 µg/mL. Also, the Interpretation result in [1] is reported as “Additive”; in data set [1] (listed as tobramycin), “additive”; in data set [3], “Syner-”; in data set [3] (listed as tobramycin) it was “synergistic”; with S. aureus (UAMS-1) (antibiotic combined with 2-CP), “synergistic”; in data set [5] (S. aureus eradication, antibiotic combined with 2-CP), “Additive”. For the same compound, in [5] (S. aureus eradication, antibiotic combined with 2-CP, listed as tobramycin), the Interpretation entry is “additive”. For the same compound, the FICI is 0.5625 in data set [1]; 0.5 in [3]; 0.5 in the data set with S. aureus (UAMS-1) (antibiotic combined with 2-CP); 0.51 in data set [5] (S. aureus eradication, antibiotic combined with 2-CP, 4000 μg/mL used for 2-CP alone). Moreover, the “MEC for antibiotic (combined)” value in data set [1] (P. aeruginosa) turned out to be 0.25 µg/mL; in data set [5] (S. aureus, combined with 2-CP), 1.25 µg/mL. In addition, the “MIC for antibiotic (alone)” value in [3] was determined as 0.5 µg/mL; with S. aureus (UAMS-1) it was 4 µg/mL. The figures for the “MIC for antibiotic (combined)” value (in data set [3]; in the data set with S. aureus (UAMS-1)) were 0.25 µg/mL and 2 µg/mL, respectively.
